Key:
Experiment in all cases: relative viability (nuclei count vs DMSO), 5 days (fraction); higher = more cells survive
RAF265 + Trametinib = compound: Cn1c(Nc2ccc(C(F)(F)F)cc2)nc2cc(Oc3ccnc(-c4ncc(C(F)(F)F)[nH]4)c3)ccc21 [RAF265] + CC(=O)Nc1cccc(-n2c(=O)n(C3CC3)c(=O)c3c(Nc4ccc(I)cc4F)n(C)c(=O)c(C)c32)c1 [Trametinib] (partner 0.02 µM)
Procedure, shortened: (§1)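 Nuclei were stained with Hoechst during a one-step fixation (final 0.05% Triton X-100, 1% formaldehyde, 1 ug/ml Hoechst) carried out 5 days after dosing, then counted on 4× images. The cells, lung cancer lines in 1536-well plates, had been dosed by pin tool the day after seeding with one drug alone or a fixed anchor-drug dose plus five library-drug doses (not always all listed) in √10 steps. Relative viability is the nuclei count in treated wells divided by that in vehicle wells, and each value is the median of duplicate plates.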

IPA-3 + Olaparib = compound: C1=CC=C2C(=C1)C=CC(=C2SSC3=C(C=CC4=CC=CC=C43)O)O [IPA-3] + O=C(c1cc(Cc2n[nH]c(=O)c3ccccc23)ccc1F)N1CCN(C(=O)C2CC2)CC1 [Olaparib] (partner 8 µM)
Procedure, shortened: as §1

Doramapimod + Pictilisib = compound: Cc1ccc(-n2nc(C(C)(C)C)cc2NC(=O)Nc2ccc(OCCN3CCOCC3)c3ccccc23)cc1 [Doramapimod] + CS(=O)(=O)N1CCN(Cc2cc3nc(-c4cccc5[nH]ncc45)nc(N4CCOCC4)c3s2)CC1 [Pictilisib] (partner 1 µM)
Procedure, shortened: as §1

Doramapimod + Pemetrexed = compound: Cc1ccc(-n2nc(C(C)(C)C)cc2NC(=O)Nc2ccc(OCCN3CCOCC3)c3ccccc23)cc1 [Doramapimod] + Nc1nc2[nH]cc(CCc3ccc(C(=O)N[C@@H](CCC(=O)O)C(=O)O)cc3)c2c(=O)[nH]1 [Pemetrexed] (partner 0.2 µM)
Procedure, shortened: as §1

| Cell Line | relative viability (RAF265 + Trametinib; first compound 0.01 µM) | relative viability (RAF265 + Trametinib; first compound 0.03162 µM) | relative viability (RAF265 + Trametinib; first compound 0.1 µM) | relative viability (RAF265 + Trametinib; first compound 0.3162 µM) | relative viability (RAF265 + Trametinib; first compound 1 µM) | relative viability (IPA-3 + Olaparib; first compound 0.2 µM) | relative viability (IPA-3 + Olaparib; first compound 0.6325 µM) | relative viability (IPA-3 + Olaparib; first compound 2 µM) | relative viability (IPA-3 + Olaparib; first compound 6.325 µM) | relative viability (IPA-3 + Olaparib; first compound 20 µM) | relative viability (Doramapimod + Pictilisib; first compound 0.02 µM) | relative viability (Doramapimod + Pictilisib; first compound 0.06325 µM) | relative viability (Doramapimod + Pictilisib; first compound 0.2 µM) | relative viability (Doramapimod + Pictilisib; first compound 0.6325 µM) | relative viability (Doramapimod + Pictilisib; first compound 2 µM) | relative viability (Doramapimod + Pemetrexed; first compound 0.02 µM) | relative viability (Doramapimod + Pemetrexed; first compound 0.06325 µM) | relative viability (Doramapimod + Pemetrexed; first compound 0.2 µM) | relative viability (Doramapimod + Pemetrexed; first compound 0.6325 µM) | relative viability (Doramapimod + Pemetrexed; first compound 2 µM) |
| --- | --- | --- | --- | --- | --- | --- | --- | --- | --- | --- | --- | --- | --- | --- | --- | --- | --- | --- | --- | --- |
| NCI-H838 | 0.542 | 0.511 | 0.518 | 0.462 | 0.39 | 0.904 | 0.723 | 0.776 | 0.667 | 0.735 | 0.415 | 0.485 | 0.439 | 0.552 | 0.467 | 0.238 | 0.252 | 0.276 | 0.263 | 0.246 |
| NCI-H2228 | 0.651 | 0.58 | 0.423 | 0.201 | 0.247 | 0.662 | 0.514 | 0.404 | 0.559 | 0.471 | 0.374 | 0.563 | 0.417 | 0.366 | 0.337 | 0.339 | 0.354 | 0.322 | 0.393 | 0.308 |
| RERF-LC-KJ | 0.877 | 0.764 | 0.867 | 0.638 | 0.546 | 0.92 | 0.942 | 0.982 | 0.771 | 0.424 | 0.569 | 0.536 | 0.56 | 0.581 | 0.55 | 0.471 | 0.457 | 0.474 | 0.367 | 0.501 |
| NCI-H661 | 0.596 | 0.484 | 0.371 | 0.332 | 0.339 | 0.784 | 0.705 | 0.786 | 0.716 | 0.738 | 0.483 | 0.405 | 0.381 | 0.452 | 0.377 | 1.05 | 0.861 | 0.923 | 0.96 | 0.901 |
| HCC-366 | 0.414 | 0.302 | 0.264 | 0.251 | 0.165 | 0.532 | 0.345 | 0.321 | 0.34 | 0.277 | 0.15 | 0.137 | 0.131 | 0.125 | 0.136 | 0.147 | 0.197 | 0.212 | 0.186 | 0.178 |
| SK-LU-1 | 0.559 | 0.419 | 0.393 | 0.274 | 0.257 | 0.536 | 0.456 | 0.494 | 0.389 | 0.466 | 0.511 | 0.627 | 0.657 | 0.726 | 0.603 | 1 | 0.937 | 0.964 | 0.863 | 0.946 |
| HCC-44 | 0.938 | 1.02 | 1.08 | 1.01 | 0.966 | 0.961 | 0.983 | 1.03 | 1.02 | 1.02 | 1.46 | 0.58 | 0.546 | 0.581 | 0.35 | 0.673 | 0.649 | 0.712 | 0.605 | 0.614 |
| A-427 | 0.905 | 0.507 | 0.592 | 0.403 | 0.198 | 0.73 | 0.723 | 0.697 | 0.607 | 0.662 | 0.642 | 0.814 | 0.845 |  | 0.676 | 0.926 | 1 | 1 |  | 0.988 |

From the supplement of paper PMC10307832
